We go through 57 compounds from ChEMBL document CHEMBL5226335, “Efforts towards the inhibitor design for New Delhi metallo-beta-lactamase (NDM-1)” (Eur J Med Chem, 2021).

In brackets after ≈: the same amount, converted by molar mass.

The first assay concerns Escherichia coli. Kind of assay: Antibacterial activity against Escherichia coli expressing NDM-1. The assay is classed as functional.
Details: not given
Consider `CCN(CC)C(=S)SSC(=S)N(CC)CC` [DISULFIRAM], for which 16 mg/L (≈ 54 µM) was the least that counted as inhibitory (MIC).

System in the next assay: not listed separately
Kind of assay: Inhibition of NDM-1 (unknown origin). More on the design: species or system Bacteria.
Details: not given
For `COc1cccc2sc(Nc3nnc(-c4cccs4)o3)nc12`, the half-maximal inhibitory concentration (IC50) (commonly the concentration needed to halve the response being measured) is 0.692 µM.

Compound `O=C(O)c1nccn1Cc1ccc(O)cc1` registered an IC50 of 118 µM. The compound `O=C(O)c1nccn1Cc1ccccc1` came in with a 50% inhibitory concentration (IC50) of 63.4 µM. Take `Nc1cccc(-c2cc(C(=O)O)nc(C(=O)O)c2)c1`: the IC50 amounted to 0.08 µM.

The compound `O=C(Nc1cccc(-c2cc(C(=O)O)nc(C(=O)O)c2)c1)c1ccccc1` yielded a 50% inhibitory concentration (IC50) of 0.13 µM.

Turning to `CN(C)c1ccc(-c2cc(C(=O)O)nc(C(=O)O)c2)cc1`, the IC50 is 0.19 µM. `O=C(O)c1cc(-c2ccccc2O)cc(C(=O)O)n1` displayed an IC50 of 0.13 µM.

The compound `O=c1c2ccccc2sn1-c1ccccc1` registered a half-inhibitory concentration (IC50) of 0.16 µM. `O=C(O)[C@@H]1CS[C@H]2CS[C@H](CS)N21` showed an IC50 of 23 µM. In the case of `CCC/C(=N\Nc1cccc2cccnc12)C(=O)O`, the IC50 came out at 68.2 µM. In turn, `CC1(C)S[C@@H]2CS[C@@H](CS)N2[C@H]1C(=O)O` showed an IC50 of 180 µM.

In the case of `CC1(C)S[C@H]2CS[C@H](CS)N2[C@@H]1C(=O)O`, the 50% inhibitory concentration (IC50) was 200 µM.

`NCc1ccc(Cn2ccnc2C(=O)O)cc1`: the IC50 turned out to be 165 µM. Still for that read-out and setting: under `O=C(O)[C@H]1CS[C@@H]2CS[C@@H](CS)N12` stands 109 µM; under `CCCCC(=O)NC(Cc1c[nH]c2ccccc12)C(=O)SCC(=O)O` (stereo not drawn), 54.9 µM. Consider `Cc1cc(-c2ccccc2)c(C(=O)O)[nH]1`, for which the negative-log IC50 (pIC50) (usually −log10 of the IC50, conventionally taken in molar units) came out at 4.5.

Turning to `CC1=C(c2ccc(Cl)cc2)N(/C(C)=N/c2ccc(Br)cc2)C(c2ccc(Cl)cc2)N1c1ccc(Br)cc1` (stereo not drawn), the IC50 was 600 µM. Turning to `CCCCC(=O)NC(Cc1ccccc1)C(=O)SCC(=O)O` (stereo not drawn), the IC50 came out at 28.6 µM. `CSCCC(NC(=O)Cc1ccccc1)C(=O)SCC(=O)O` (stereo not drawn) came in with an IC50 of 19.7 µM. Regarding `O=C(O)c1ccc(N(Cc2ccccc2)C(=O)c2cccs2)c(CP(=O)(O)O)n1`, the IC50 was 0.306 µM. The compound `CC(=O)NC1=C(S)/C(=C\S)NC1=O` registered a 50% inhibitory concentration (IC50) of 0.11 µM. Take `O=C(O)CSC(=O)C(Cc1c[nH]c2ccccc12)NC(=O)Cc1ccc(-c2ccccc2)cc1` (stereo not drawn): the IC50 was 16.6 µM. On the same count and under the same terms, for `CCCCC(=O)NC(CCSC)C(=O)SCC(=O)O` (stereo not drawn) the value was 37.7 µM; for `O=C(O)CSC(=O)C(Cc1ccccc1)NC(=O)Cc1ccc(-c2ccccc2)cc1` (stereo not drawn), 44 µM. The compound `C[C@@H](CS)C(=O)N[C@@H](C(=O)O)c1ccc2cc[nH]c2c1` gave an IC50 of 64.8 µM. Still for that read-out and setting: for `CC(=O)C1CSC(C(=O)O)N1` (stereo not drawn) the value was 3.45 µM. For the compound `O=C(O)c1ccc(O)c(CP(=O)(O)O)n1`, the IC50 stood at 0.322 µM. For the compound `Oc1c(C(Nc2ccccn2)c2cccs2)ccc2cccnc12` (stereo not drawn), the IC50 came out at 0.463 µM. `O=C(O)CSC(=O)C(Cc1c[nH]c2ccccc12)NC(=O)Cc1ccccc1` (stereo not drawn) came in with a half-maximal inhibitory concentration (IC50) of 27.9 µM. `O=C(Cc1ccccc1)N[C@@H]1C(=O)N2C(C(=O)O)=C(CSc3nnc(-c4ccc(-n5[se]c6ccccc6c5=O)cc4)[nH]3)CSC12` (stereo partly drawn) registered a half-maximal inhibitory concentration (IC50) of 2.93 µM. Compound `Cc1cccc(-c2cc[nH]c2C(=O)O)c1` had a pIC50 of 4.2. The compound `CCCC/C(=N\Nc1cccc2ccccc12)C(=O)O` registered a 50% inhibitory concentration (IC50) of 28.1 µM.

Take `O=C(O)c1cccc(CP(=O)(O)O)n1`: half-maximal inhibition (IC50) was put at 0.374 µM.

`Oc1c(C(Nc2ccc(F)cc2)c2cncs2)ccc2cccnc12` (stereo not drawn) showed an IC50 of 10.3 µM.

As to `CCCC/C(=N\Nc1cccc2cccnc12)C(=O)O`, half-maximal inhibition (IC50) required 82.3 µM.

As for `CC1=C(c2ccccc2)N(/C(C)=N/c2ccc(Cl)cc2)C(c2ccccc2)N1c1ccc(Cl)cc1` (stereo not drawn), the IC50 stood at 900 µM. `CC1=C(c2ccc(Cl)cc2)N(/C(C)=N/c2ccc(Cl)cc2)C(c2ccc(Cl)cc2)N1c1ccc(Br)cc1` (stereo not drawn) gave an IC50 of 400 µM.

`C[C@H](CS)C(=O)N[C@@H](C(=O)O)c1ccc2cc[nH]c2c1` came in with an IC50 of 24.8 µM. The compound `O=C(O)C(=O)CBr` [BROMOPYRUVATE] displayed a concentration for half-maximal inhibition (IC50) of 2.57 µM. Consider `CC(C)c1cc2c(c(O)c1O)[C@@]1(C(=O)O)CCCC(C)(C)[C@@H]1CC2` [CARNOSIC ACID], for which the 50% inhibitory concentration (IC50) was 27.1 µM.

The compound `O=C(O)c1cccc(C(=O)O)n1` [DIPICOLINIC ACID] gave an IC50 of 1.13 µM.

Compound `CCN(CC)C(=S)SSC(=S)N(CC)CC` [DISULFIRAM] yielded an IC50 of 0.13 µM.

Molecular target in the next assay: not listed separately
Description: Binding affinity to NDM-1 (unknown origin) assessed as inhibition constant. More on the design: species or system Bacteria.
Details: not given
As for `O=C(CSc1n[nH]c(-c2ccncc2)n1)Nc1ccccc1`, the Ki (as a rule, the equilibrium dissociation constant of an inhibitor or competing ligand from its target) stood at 0.42 µM.

Turning to `O=C(CSc1nnc(-c2ccncc2)s1)Nc1ccccc1`, the inhibition constant Ki is 1.2 µM. The same measure, in the same setting: for `O=C(CSc1nnc(-c2ccccc2O)[nH]1)Nc1ccccc1` the value was 0.43 µM; for `O=C(O)c1ncsc1NS(=O)(=O)c1cccnc1`, 0.29 µM; for `O=C(NOC(=O)Oc1ccccc1)OCc1ccccc1`, 140 µM. Take `O=C(CSc1nnc(-c2ccccc2O)s1)Nc1nc2ccccc2s1`: the inhibition constant Ki came to 0.81 µM. Still for that read-out and setting: under `O=C(CSc1nnc(-c2ccccc2O)[nH]1)Nc1nc2ccccc2s1` stands 0.35 µM. `O=C(CSc1nnc(-c2ccccc2O)o1)Nc1ccccc1`: the Ki was determined as 0.6 µM. Regarding `O=C(CSc1nnc(-c2ccccc2O)s1)Nc1ccccc1`, the inhibition constant (Ki) was found to be 0.64 µM.

With `O=C(CSc1nnc(-c2ccncc2)o1)Nc1ccccc1`, the Ki is 0.23 µM. For `O=Cc1coc2ccccc2c1=O`, the Ki is 0.58 µM.

For the compound `N[C@@H](C(=O)N[C@@H]1C(=O)N2C(C(=O)O)=C(Cl)CS[C@H]12)c1ccccc1` [CEFACLOR ANHYDROUS], the inhibition constant Ki was found to be 2300 µM. As for `O=c1c2ccccc2[se]n1-c1ccccc1` [EBSELEN], the Ki turned out to be 0.38 µM.

The subject of the next assay is Klebsiella pneumoniae. Kind of assay: Antibacterial activity against Klebsiella pneumoniae N11-2218 expressing NDM-1infected in mouse assessed as survival rate at 10 mg/kg,sc measured after 5 days. The assay is classed as functional. The note with it: N11-2218, 120 h, time 5 day.
On to `N[C@H](CN[C@H](CN[C@@H](CC(=O)O)C(=O)O)C(=O)O)C(=O)O`, for which the survival at 10 mg/kg was determined as 95%. `COc1cc(/C=C/c2ccc(O)cc2)cc(OC)c1` [PTEROSTILBENE]: the survival at 10 mg/kg came to 52%.
